# Measurements: patent publication US6576671B1, “Aminotetralin derivatives for the therapy of cardiovascular diseases” (Chiese Farmaceutici S.p.A., priority 1999, dated 2003)
# Columns and labels:
# [1] = test system: patients with a moderate congestive heart failure (class NYHA II-III); assay: Randomized double-blind study versus placebo, hemodynamic and neurohumoral parameters; type: in vivo, human
# Procedure: In order to investigate the effects of the compound both on the hemodynamic parameters and the neurohumoral pattern, a randomized double-blind study versus placebo was carried out in 18 patients with a moderate congestive heart failure (class NYHA II-III).
# Each patient received on 3 consecutive days 2 active doses of CHF 1035 and 1 placebo dose.
# The following hemodynamic parameters were evaluated:
# pulmonary capillary wedge pressure (PCWP) (mmHg);
# cardiac index (CJ) (L/min/m^2);
# stroke volume index (SVI) (ml/min/m^2);
# systemic vascular resistance (SVR) (dyneseccm^−5);
# mean blood pressure (BPm) (mmHg).
# The evaluations were carried out by catheterization of the right heart (Swan-Ganz catheter), measuring the hemodynamic parameters of the tested medicament before administration or “pre-dose” (PD) and for the 300 subsequent minutes after the administration or “after-dose” (AD), every 20 minutes for the first 2 hours, then every 60 minutes.
# To evaluate the effects of the compound on neurohormones, noradrenaline (NE) (pg/ml) and adrenalin (E) (pg/ml) plasmatic levels were further evaluated, before and 140 minutes after the administration of CHF 1035 and placebo, respectively.
# anesthetized rats = assay: In vivo cardiovascular effects in anesthetized rats; parameters: species or system rat
# Procedure: Male albino rats (Sprague Dawley, 350-400 g) were anesthetized by sodium pentobarbital (60 mg/kg) and maintained by i.v. infusion (6 mg/h). The trachea was cannulated to facilitate spontaneous respiration and body temperature was maintained at 37 C. Homoiothermic Blanket Control System (Harvard, England).
# The right femoral artery was cannulated for arterial blood pressure measurement and left jugular vein or duodenum were cannulated for drug administration. Mean arterial pressure and heart rate were continuously monitored by pressure transducer and medium gain amplifier triggered by the ECG signal, respectively. […]
# CHF 1035 was administered intraduodenally (1 mg/kg).
# The response to […] was determined in the absence and in the presence of the selective β2-adrenoceptor antagonist ICI 118.551 (0.2 mg/kg i.v.) and the selective DA2-dopaminergic antagonist domperidone (0 3 mg/kg i.v.) both alone and in combination. The antagonists were administered 10 min before the i.d. drug administration.
# [2] = target: peripheral DA2 dopaminergic receptors (Oryctolagus cuniculus, UniProt G1T1Q0); assay: Peripheral DA2 dopaminergic activity in electrically stimulated rabbit rectococcygeus muscle
# Chain of peripheral DA2 dopaminergic receptors (G1T1Q0 1-443): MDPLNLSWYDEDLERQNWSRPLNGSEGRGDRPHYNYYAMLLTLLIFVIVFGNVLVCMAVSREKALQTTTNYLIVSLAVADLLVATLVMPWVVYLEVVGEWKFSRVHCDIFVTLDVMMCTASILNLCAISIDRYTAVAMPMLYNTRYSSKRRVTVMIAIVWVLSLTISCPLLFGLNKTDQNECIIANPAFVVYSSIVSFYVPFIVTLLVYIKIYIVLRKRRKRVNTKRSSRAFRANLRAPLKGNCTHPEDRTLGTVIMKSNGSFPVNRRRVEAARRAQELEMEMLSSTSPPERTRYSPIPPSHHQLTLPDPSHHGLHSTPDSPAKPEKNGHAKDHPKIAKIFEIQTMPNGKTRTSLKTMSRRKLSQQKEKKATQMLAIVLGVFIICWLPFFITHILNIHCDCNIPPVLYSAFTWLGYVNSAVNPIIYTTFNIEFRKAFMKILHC
# Description: The activity of CHF 1024 and CHF 1035 on peripheral DA2 dopaminergic receptors has been tested in the electrically stimulated rabbit rectococcygeus muscle.
# [3] = Pharmacological and clinic pharmacological studies of diuresis; conditions: in vivo
# α2 adrenergic receptors = target: T1, α2 adrenergic receptors (Homo sapiens, UniProt P08913); assay: α2 adrenergic receptor binding, [3H]-rauwolscine, human platelets; conditions: human platelets; read-out: IC50, 50% inhibition of [3H]-rauwolscine specific binding
# T1 construct: from tissue; host or cells: human platelets
# T1 sequence (P08913 1-465): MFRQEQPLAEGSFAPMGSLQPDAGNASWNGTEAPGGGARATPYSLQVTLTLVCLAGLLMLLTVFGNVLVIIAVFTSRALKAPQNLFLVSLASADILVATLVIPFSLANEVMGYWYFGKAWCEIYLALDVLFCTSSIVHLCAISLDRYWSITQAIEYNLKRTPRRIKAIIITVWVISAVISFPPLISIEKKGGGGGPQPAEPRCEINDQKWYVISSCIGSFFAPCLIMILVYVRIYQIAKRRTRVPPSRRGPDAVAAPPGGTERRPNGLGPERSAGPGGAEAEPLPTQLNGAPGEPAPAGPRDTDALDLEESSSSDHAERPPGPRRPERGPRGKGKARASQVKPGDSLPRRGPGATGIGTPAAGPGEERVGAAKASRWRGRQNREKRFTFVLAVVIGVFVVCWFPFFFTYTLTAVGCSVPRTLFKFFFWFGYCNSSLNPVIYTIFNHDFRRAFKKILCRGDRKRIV
# Description: The antagonist [^3H]-rauwolscine was used as marker of the receptor, being its binding reversible, saturable and specific.
# [4] = test system: plasma and tissue esterases; assay: Transformation into the desesterified form after administration; type: in vivo
# [5] = 5 mg, 140 minutes after administration (AD)
# [6] = 5 mg, before administration (PD)
# [7] = 10 mg, 140 minutes after administration (AD)
# [8] = 10 mg, before administration (PD)
# [9] = 15 mg, 140 minutes after administration (AD)
# [10] = 15 mg, before administration (PD)
smiles,measurement,setting,value
"CNC1CCc2c(ccc(OC(=O)C(C)C)c2OC(=O)C(C)C)C1 (stereo not drawn) [CHF 1035, 5,6-Diisobutyroyloxy-2-methylaminotetralin]",reduction in the peripheral vascular resistances,[1]; 5 mg,−15.4%
same,adrenalin (E) plasmatic level,[1]; [5],42 pg/mL
same,noradrenaline (NE) plasmatic level,[1]; [5],301 pg/mL
same,cardiac index (CI),"[1]; 5 mg, after-dose (AD)",3.4 L/min/m^2
same,heart rate (HR),"[1]; 5 mg, after-dose (AD)",78 bpm
same,mean blood pressure (BPm),"[1]; 5 mg, after-dose (AD)",82 mmHg
same,pulmonary capillary wedge pressure (PCWP),"[1]; 5 mg, after-dose (AD)",18 mmHg
same,stroke volume index (SVI),"[1]; 5 mg, after-dose (AD)",43 ml/min/m^2
same,systemic vascular resistance (SVR),"[1]; 5 mg, after-dose (AD)",1052 dyneseccm^−5
same,adrenalin (E) plasmatic level,[1]; [6],56 pg/mL
same,noradrenaline (NE) plasmatic level,[1]; [6],299 pg/mL
same,cardiac index (CI),"[1]; 5 mg, pre-dose (PD)",3 L/min/m^2
same,heart rate (HR),"[1]; 5 mg, pre-dose (PD)",74 bpm
same,mean blood pressure (BPm),"[1]; 5 mg, pre-dose (PD)",85 mmHg
same,pulmonary capillary wedge pressure (PCWP),"[1]; 5 mg, pre-dose (PD)",22 mmHg
same,systemic vascular resistance (SVR),"[1]; 5 mg, pre-dose (PD)",1243 dyneseccm^−5
same,reduction in the peripheral vascular resistances,[1]; 10 mg,−27.0%
same,adrenalin (E) plasmatic level,[1]; [7],62 pg/mL
same,noradrenaline (NE) plasmatic level,[1]; [7],244 pg/mL
same,cardiac index (CI),"[1]; 10 mg, after-dose (AD)",3.4 L/min/m^2
same,heart rate (HR),"[1]; 10 mg, after-dose (AD)",76 bpm
same,mean blood pressure (BPm),"[1]; 10 mg, after-dose (AD)",77 mmHg
same,pulmonary capillary wedge pressure (PCWP),"[1]; 10 mg, after-dose (AD)",16 mmHg
same,stroke volume index (SVI),"[1]; 10 mg, after-dose (AD)",45 ml/min/m^2
same,systemic vascular resistance (SVR),"[1]; 10 mg, after-dose (AD)",1009 dyneseccm^−5
same,adrenalin (E) plasmatic level,[1]; [8],65 pg/mL
same,noradrenaline (NE) plasmatic level,[1]; [8],285 pg/mL
same,cardiac index (CI),"[1]; 10 mg, pre-dose (PD)",2.7 L/min/m^2
same,heart rate (HR),"[1]; 10 mg, pre-dose (PD)",70 bpm
same,mean blood pressure (BPm),"[1]; 10 mg, pre-dose (PD)",85 mmHg
same,pulmonary capillary wedge pressure (PCWP),"[1]; 10 mg, pre-dose (PD)",20 mmHg
same,stroke volume index (SVI),"[1]; 10 mg, pre-dose (PD)",38 ml/min/m^2
same,systemic vascular resistance (SVR),"[1]; 10 mg, pre-dose (PD)",1382 dyneseccm^−5
same,reduction in the peripheral vascular resistances,[1]; 15 mg,−35.2%
same,adrenalin (E) plasmatic level,[1]; [9],58 pg/mL
same,noradrenaline (NE) plasmatic level,[1]; [9],308 pg/mL
same,cardiac index (CI),"[1]; 15 mg, after-dose (AD)",4 L/min/m^2
same,heart rate (HR),"[1]; 15 mg, after-dose (AD)",80 bpm
same,mean blood pressure (BPm),"[1]; 15 mg, after-dose (AD)",79 mmHg
same,pulmonary capillary wedge pressure (PCWP),"[1]; 15 mg, after-dose (AD)",16 mmHg
same,stroke volume index (SVI),"[1]; 15 mg, after-dose (AD)",49 ml/min/m^2
same,systemic vascular resistance (SVR),"[1]; 15 mg, after-dose (AD)",881 dyneseccm^−5
same,adrenalin (E) plasmatic level,[1]; [10],53 pg/mL
same,noradrenaline (NE) plasmatic level,[1]; [10],340 pg/mL
same,cardiac index (CI),"[1]; 15 mg, pre-dose (PD)",3 L/min/m^2
same,heart rate (HR),"[1]; 15 mg, pre-dose (PD)",74 bpm
same,mean blood pressure (BPm),"[1]; 15 mg, pre-dose (PD)",87 mmHg
same,pulmonary capillary wedge pressure (PCWP),"[1]; 15 mg, pre-dose (PD)",21 mmHg
same,stroke volume index (SVI),"[1]; 15 mg, pre-dose (PD)",40 ml/min/m^2
same,systemic vascular resistance (SVR),"[1]; 15 mg, pre-dose (PD)",1359 dyneseccm^−5
same,increase in heart rate,"[1]; 5, 10, 15 mg, only a relative increase",not clinically significant
same,catecholamines plasmatic levels,[1]; during systemic vasodilation,without inducing any reflected increase
same,peak hypotensive effect after pretreatment with the β2-antagonist,"anesthetized rats; 1 mg/kg i.d., ICI 118.551 0.2 mg/kg i.v. 10 min before",significantly reduced
same,hypotensive response after both antagonists combined,"anesthetized rats; 1 mg/kg i.d., ICI 118.551 and domperidone",completely abolished
same,time to complete recovery of basal value after DA2-antagonist pretreatment,"anesthetized rats; 1 mg/kg i.d., domperidone i.v. 10 min before, hypotensive response significantly shortened",60 min
same,"hypotensive response, peak effect, reduction from basal value","anesthetized rats; 1 mg/kg intraduodenal, 5 min after administration",about 45%
same,"hypotensive response, reduction from basal value","anesthetized rats; 1 mg/kg intraduodenal, 2 hours after administration",about 20%
same,blood pressure,"anesthetized rats; intraduodenal, 1 mg/kg",markedly reduced
same,heart rate,"anesthetized rats; intraduodenal, 1 mg/kg",without affecting
same,effect in presence of selective DA2-antagonist domperidone,[2],competitively antagonized
same,more potent than dopamine,[2],approximately 3 times
same,IC50,"[2]; read-out: IC50, 50% inhibition of the electrically induced contraction",0.0296 µM
same,diuresis,[3],increases
same,natriuresis and kaliuresis,[3],without affecting
same,IC50,α2 adrenergic receptors,27 µM
same,transformation by plasma and tissue esterases into the active desesterified form,[4],Immediately after the administration
